Data taken from article PMC9920413, “New Bicyclic Pyridine-Based Hybrids Linked to the 1,2,3-Triazole Unit: Synthesis via Click Reaction and Evaluation of Neurotropic Activity and Molecular Docking” (Molecules, 2023).
“And” between values parts separate entries of the source, which are not always exact repeats. Equal entries are not always repeated.

Key:
[1] = system: thiosemicarbazide (TSC)-induced convulsions; test: Thiosemicarbazide (TSC) seizures; assay type: in vivo, mice; conditions: mice; for response vs control in vivo at 100 mg/kg: Mus musculus, ip, read-out: Latency of Convulsions, Induced by TSC, I (index of latent period of TSC seizures); for response vs control in vivo at 100 mg/kg / Latency of Convulsions, Induced by TSC, I (index of latent period of TSC seizures): compound 100 mg/kg i.p., relative to control = 1.0; for Latency of Convulsions, Induced by TSC, M ± M: compound 100 mg/kg i.p. 45 min before TSC 18 mg/kg s.c.
Procedure: (§1) The study of the anticonvulsant activity of hybrids 7a–u was assessed by evaluating the antagonism to pentylenetetrazole (PTZ), thiosemicarbazide convulsive seizures, and maximal electroshock-induced seizures (MES). The PTZ-induced test is considered an experimental model for the clonic component of epilepsy seizures and the prognostic anxiolytic activity of the compounds. PTZ is a common convulsive agent used in animal models to investigate the mechanisms of seizures. The model of thiosemicarbazide (TSC) seizures (affecting the exchange of GABA) causes clonic seizures similar to pentylenetetrazole ones. The MES test is used as an animal model for the generalization of tonic seizures in epilepsy. The neurotoxicity and side effects of the compounds (movement coordination disorder, myorelaxation, and ataxia) were also studied on mice with the “rotating rod”[29] test.
Thiosemicarbazide, an antimetabolite of GABA inhibitor (glutamic acid decarboxylase) in the brain, is administered subcutaneously to mice at a dose of 18 mg/kg as a 0.5% solution, which causes clonic convulsions in animals. Anti-thiosemicarbazide activity was evaluated based on the latency time of the onset of seizures. Compounds were administered intraperitoneally at doses of 100 mg/kg in suspension with carboxymethylcellulose and Tween-80 45 min before administration of thiosemicarbazide.

in vivo = conditions: outbred, mouse, in vivo; mice, dead animals after 24 h
Procedure: (§2) Adverse neurotoxic (muscle relaxant) effects of compounds were studied at doses of 50 to 500 mg/kg when administered intraperitoneally, as well as reference drugs in effect at anticonvulsant doses. Myorelaxation was investigated with the test of a “rotating rod” in mice. To this end, mice were planted on a metal rod with a corrugated rubber coating, which rotated at a speed of 5 revolutions per minute. The number of animals that cnot stay on it for 2 min was determined. To determine the ED50, neurotoxic TD50, and LD50, the statistical method of penetration by Litchfield and Wilcoxon was used.

[2] = Rotating rod test (neurotoxicity, myorelaxation); assay type: in vivo; conditions: outbred, mouse, in vivo, ip, mice, myorelaxation in 50% of animals
Procedure: as §1, §2

mice [3] = test: Forced swimming test; conditions: 50 mg/kg, 6 min; for Total Time of Immobilization: control 42.0 ± 7.24; for Total Time of Active Swimming: control 318.0 ± 8.36;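 on all read-outs here: mice made to swim in a water-filled glass vessel under natural light, with durations of active swimming and immobility recorded across the 6 min session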
Procedure: Forced swimming test. To assess “despair and depression”, the “compelling swimming” model was used. Experimental animals were forced to swim in a glass container (height 22 cm, diameter 14 cm), filled 1/3 with water. […] The latent period of immobilization, the total duration of active swimming and immobilization are fixed at 6 min (the experiments were conducted under natural light).

[4] = system: pentylenetetrazole (PTZ)-induced convulsions; test: Antagonism to pentylenetetrazole (PTZ) convulsions; assay type: in vivo; conditions: for ED50: Mus musculus, read-out: ED50 (by PTZ antagonism); for ED50 / ED50 (by PTZ antagonism): mice, i.p. 45 min before PTZ 90 mg/kg s.c., confidence limits in brackets, p = 0.05; for TI: therapeutic index TI = LD50/ED50
Procedure: as §1
The anticonvulsant effect of the newly synthesized compounds was investigated by tests comprising pentylenetetrazole, thiosemicarbazide convulsions, and maximal electroshock (MES). Outbred mice (weight 18–22 g) were used for the study. […] Each animal is placed into an individual plastic cage for observation lasting 1 h. Seizures and clonic convulsions were recorded. […] The control animals were administered as an emulsifier. Every dose of each test compound was studied in six animals.
as §2

rats [5] = test: Open field test; assay type: in vivo; conditions: 50 mg/kg i.p.; for Cells Examination, amount (absolute data during 5 min): control 2.4 ± 0.67; for Vertical Displacement, amount (absolute data during 5 min): control 7.0 ± 2.14; for Horizontal Displacement, amount (absolute data during 5 min): control 21.6 ± 2.25
Procedure: Open field test. The research-motor behavior of rats was studied on a modified “open field” model. For this purpose, an installation was used, the bottom of which is divided into squares with holes (cells). Experiments were performed in the daytime with natural light. Within 5 min of the experiment, the indicators of sedative and activating behavior were determined, namely the number of horizontal movements, standing on the hind legs (vertical movements), and sniffing of the cells. The number of animals on this model was eight for each compound, control, and reference drug.

mouse = test: Elevated plus maze (EPM) test; assay type: in vivo; conditions: 50 mg/kg i.p., 5 min; for Number of Entries into the Closed Arms: control 9.4 ± 1.6; for Time Spent in the Center: control 28.2 ± 3.12; for Time Spent in Closed Arms: control 269.2 ± 10.4
Source text: Elevated plus maze—EPM test. Anti-anxiety and sedative effects were studied on mouse a model of the “elevated plus maze”. The labyrinth is a cruciform machine raised above the floor, with a pair of open and closed sleeves opposed to each other. Normal animals prefer to spend most of their time in the closed (dark) sleeves of the labyrinth. The anxiolytic effect of the compounds was estimated by the increase in the number of entries into open (light) sleeves and the time spent in them without increasing the total motor activity. This records the time spent in the closed sleeve and the number of attempts to enter the installation center. In the above model, the test compounds and the reference drug were injected intraperitoneally before the experiments. The control animals were administered as an emulsifier. Results were processed statistically (p < 0.05).

rats [6] = test: Electroshock retrograde amnesia, conditioned response of passive avoidance (CRPA); assay type: in vivo; conditions: 50 mg/kg, study for 5 min; for The Time Spent in the Light Chamber during the Training of the CRPA, First Day: control 280.0 ± 7.5; for The Time Spent in the Light Chamber When Playing CRPA + MESH after 24 h, Second Day: control 281.0 ± 6.1
Procedure: Test for learning and memory. The antiamnesic properties of the compounds were studied using an electroshock amnesia model modified by J. Bures, O. Buresova. In rats, a conditioned passive avoidance reaction (CRPA) to a dark-light setting was developed, while the training of the animals with CRPA was recorded. The residence times in the light and dark compartments were recorded for 5 min (300 s). Then, in the dark compartment, the animal received a single current shock (0.4 mA) through the electrode floor (training). To obtain amnesia, a maximum electroconvulsive seizure is induced in animals (conducting a maximum electric current of 50 Hz for 0.2 s through corneal electrodes). Conducting an electric shock immediately after training causes the erasure of the memory trace. The test for reproduction is carried out 24 h after training—after the development of CRPA. During this period, the control animals forget the training and prefer to be in the dark part of the chamber. An increase in the time spent by rats in the light compartment compared to the control on the second day indicates the presence of antiamnestic properties of the compounds.

mice [7] = test: in vivo; conditions: dead animals after 24 h
Procedure: as §2

mice [8] = test: Rotating rod test (neurotoxicity, myorelaxation); assay type: in vivo; conditions: i.p., myorelaxation in 50% of animals
Procedure: as §1, §2

Row | Compound | response vs control in vivo at 100 mg/kg [1] | Latency of Convulsions, Induced by TSC, M ± M [1] | LD50 at 24 h (in vivo) | TD50 at 2 min [2] | Total Time of Immobilization (mice [3]) | Total Time of Active Swimming (mice [3]) | ED50 [4] | TI [4] | Cells Examination, amount (absolute data during 5 min) (rats [5]) | Vertical Displacement, amount (absolute data during 5 min) (rats [5]) | Horizontal Displacement, amount (absolute data during 5 min) (rats [5]) | Time Spent in the Open Arms (mouse; control 2.6 ± 1.6) | Number of Entries into the Closed Arms (mouse) | Time Spent in the Center (mouse) | Time Spent in Closed Arms (mouse) | The Time Spent in the Light Chamber during the Training of the CRPA, First Day (rats [6]) | The Time Spent in the Light Chamber When Playing CRPA + MESH after 24 h, Second Day (rats [6]) | Latency of Convulsions, Induced by TSC, I (index of latent period of TSC seizures) [1] | LD50 (mice [7]) | TD50 (mice [8]) | further results
1 | Cc1nc(N2CCN(C(=O)Cn3cc(COc4nc(-c5ccco5)c5c(c4C#N)CCCC5)nn3)CC2)c(C#N)c2c1COC(C)(C)C2 [7j, 6-(4-{[4-({[4-Cyano-1-(2-furyl)-5,6,7,8-tetrahydroisoquinolin-3-yl]oxy}methyl)-1H-1,2,3-triazol-1-yl]acetyl}piperazin-1-yl)-3,3,8-trimethyl-3,4-dihydro-1H-pyrano [3,4-c]pyridine-5-carbonitrile] | 410% | 41.0 ± 3.95 min | 930 mg/kg | > 500 mg/kg | 14.0 ± 3.37 s | 346.0 ± 11.35 s | 22 mg/kg | 42.3 | 9.8 ± 3.53 | 10 ± 3.39 | 54.6 ± 10.03 | 19.6 ± 3.5 s | 5.9 ± 2.1 | 19.2 ± 4.15 s | 261.2 ± 20.8 s | 293.0 ± 7.2 s | 120.0 ± 5.8 s |  |  |  | 
2 | 6-{4-[(4-{[(5-Cyano-3,3-dimethyl-8-propyl-3,4-dihydro-1H-pyrano [3,4-c]pyridin-6-yl)oxy]methyl}-1H-1,2,3-triazol-1-yl)acetyl]piperazin-1-yl}-1-ethyl-3,3-dimethyl-3,4-dihydro-1H-pyrano [3,4-c]pyridine-5-carbonitrile [7t] |  | 43.8 ± 4.34 min |  |  | 62.0 ± 6.77 s | 298.0 ± 16.64 s |  | 25.6 | 2.6 ± 0.79 | 10.6 ± 3.84 | 46.0 ± 7.37 | 23.0 ± 5.51 s | 1.6 ± 0.67 | 9.0 ± 2.2 s | 268.0 ± 5.56 s |  |  | 4.38 | 768 (640 ÷ 922) mg/kg | >500 mg/kg | ED50 (by PTZ antagonism) [4]: 30 (24.2 ÷ 42) mg/kg
3 | Cc1nc(OCc2cn(CC(=O)N3CCN(c4nc(C)c5c(c4C#N)CC(C)(C)OC5)CC3)nn2)c(C#N)c2c1COC(C)(C)C2 [7m, 6-{4-[(4-{[(5-Cyano-3,3,8-trimethyl-3,4-dihydro-1H-pyrano [3,4-c]pyridin-6-yl)oxy]methyl}-1H-1,2,3-triazol-1-yl)acetyl]piperazin-1-yl}-3,3,8-trimethyl-3,4-dihydro-1H-pyrano [3,4-c]pyridine-5-carbonitrile] | 366% | 36.6 ± 1.11 min | 820 mg/kg | > 500 mg/kg | 5.0 ± 1.2 s | 355.0 ± 5.0 s | 15 mg/kg | 54.7 | 13.4 ± 5.56 | 12 ± 3.95 | 59.8 ± 9.58 |  | 6.4 ± 1.11 | 48.8 ± 5.14 s | 175.4 ± 6.23 s | 282.0 ± 6.8 s | 296.0 ± 5.4 s |  |  |  | Time Spent in the Open Arms (mouse; control 2.6 ± 1.6, 50 mg/kg): 66.4 s and 66.4 ± 7.78 s
4 | 6-{4-[(4-{[(4-Cyano-1-methyl-5,6,7,8-tetrahydroisoquinolin-3-yl)oxy]methyl}-1H-1,2,3-triazol-1-yl)acetyl]piperazin-1-yl}-3,3-dimethyl-1-propyl-3,4-dihydro-1H-pyrano [3,4-c]pyridine-5-carbonitrile [7f] |  | 40.6 ± 1.11 min |  |  | 66.0 ± 4.48 s | 296.0 ± 16.85 s |  | 28.9 | 3.2 ± 1.03 | 10.8 ± 3.67 | 39.2 ± 4.92 | 16.0 ± 2.09 s | 3.0 ± 0.89 | 22.0 ± 6.32 s | 264.0 ± 13.48 s |  |  | 4.06 | 810 (686 ÷ 956) mg/kg | >500 mg/kg | ED50 (by PTZ antagonism) [4]: 28 (22.2 ÷ 35.3) mg/kg
5 | Cc1nc(N2CCN(C(=O)Cn3cc(COc4nc(C(C)C)c5c(c4C#N)CCC5)nn3)CC2)c(C#N)c2c1COC(C)(C)C2 [7a, 6-{4-[(4-{[(4-Cyano-1-isopropyl-6,7-dihydro-5H-cyclopenta[c]pyridin-3-yl)oxy]methyl}-1H-1,2,3-triazol-1-yl)acetyl]piperazin-1-yl}-3,3,8-trimethyl-3,4-dihydro-1H-pyrano [3,4-c]pyridine-5-carbonitrile] | 430% | 43.0 ± 5.2 min | 890 mg/kg | > 500 mg/kg | 18.6 ± 3.2 s | 341.4 ± 6.2 s | 20 mg/kg | 44.5 | 8.6 ± 1.89 | 6.8 ± 3.42 | 44.4 ± 10.1 | 15.0 ± 2.1 s | 5.6 ± 2.1 | 22.4 ± 3.99 s | 262.6 ± 14.6 s | 286.0 ± 4.3 s | 298.0 ± 6.9 s |  |  |  | 
